Converted amounts (≈) assume the structure as drawn. A value given as a limit tells only on which side of the number the result lay.

The subject of one experiment is Pseudomonas aeruginosa. Kind of experiment: Antibacterial activity against Pseudomonas aeruginosa ATCC 27853. The class given is functional.
In turn, `C[C@@](CCN1Cc2cc(C#Cc3ccc(C4(CN)CC4)cc3)cn2C1=O)(C(=O)NO)S(C)(=O)=O.O=CO` returned an MIC of 4 µg/mL.

For the compound `C[C@@](CCN1Cc2cc(C#Cc3ccc(OCCO)cc3)cn2C1=O)(C(=O)NO)S(C)(=O)=O`, inhibition of growth (MIC) required 1 µg/mL (≈ 2.1 µM). Against the preceding compound, the MIC is about 4-fold lower.

Take `C[C@@](CCN1Cc2cc(C#Cc3ccc(COC(N)=O)cc3)cn2C1=O)(C(=O)NO)S(C)(=O)=O`: 0.5 µg/mL (≈ 1.02 µM) was the least that counted as inhibitory (MIC).

As for `COc1ccc(-c2cc3n(c2)C(=O)N(CC[C@](C)(C(=O)NO)S(C)(=O)=O)C3)c(F)c1`, the MIC came out at 1 µg/mL (≈ 2.28 µM).

`C[C@@](CCN1Cc2cc(C#CC#C[C@@H]3C[C@@]3(F)CO)cn2C1=O)(C(=O)NO)S(C)(=O)=O` yielded an MIC of 0.5 µg/mL (≈ 1.11 µM).

Compound `CCOc1ccc(-c2cc3n(c2)C(=O)N(CC[C@](C)(C(=O)NO)S(C)(=O)=O)C3)c(Cl)c1` registered an MIC of 4 µg/mL (≈ 8.51 µM).

The subject of a further experiment is Escherichia coli. Put plainly: Antibacterial activity against Escherichia coli ATCC 25922. The class given is functional.
Take `C[C@@](CCN1Cc2cc(C#Cc3ccc(C4(CN)CC4)cc3)cn2C1=O)(C(=O)NO)S(C)(=O)=O.O=CO`: the MIC is 8 µg/mL.

With `C[C@@](CCN1Cc2cc(C#Cc3ccc(OCCO)cc3)cn2C1=O)(C(=O)NO)S(C)(=O)=O`, the MIC is 0.125 µg/mL (≈ 0.263 µM). Compared with the last compound, the MIC is about 64-fold lower.

Compound `C[C@@](CCN1Cc2cc(C#Cc3ccc(COC(N)=O)cc3)cn2C1=O)(C(=O)NO)S(C)(=O)=O` gave an MIC of at most 0.063 µg/mL.

As to `COc1ccc(-c2cc3n(c2)C(=O)N(CC[C@](C)(C(=O)NO)S(C)(=O)=O)C3)c(F)c1`, the MIC was 0.125 µg/mL (≈ 0.284 µM).

Turning to `C[C@@](CCN1Cc2cc(C#CC#C[C@@H]3C[C@@]3(F)CO)cn2C1=O)(C(=O)NO)S(C)(=O)=O`, it took 0.25 µg/mL (≈ 0.554 µM) to inhibit growth (MIC).

In the case of `CCOc1ccc(-c2cc3n(c2)C(=O)N(CC[C@](C)(C(=O)NO)S(C)(=O)=O)C3)c(Cl)c1`, the MIC is at most 0.063 µg/mL.

The next experiment concerns Klebsiella pneumoniae. Kind of experiment: Antibacterial activity against Klebsiella pneumoniae A-651. In kind it is functional.
With `C[C@@](CCN1Cc2cc(C#Cc3ccc(C4(CN)CC4)cc3)cn2C1=O)(C(=O)NO)S(C)(=O)=O.O=CO`, the MIC turned out to be 8 µg/mL.

In turn, `C[C@@](CCN1Cc2cc(C#Cc3ccc(OCCO)cc3)cn2C1=O)(C(=O)NO)S(C)(=O)=O` displayed an MIC of 0.5 µg/mL (≈ 1.05 µM). Compared with the last compound, the MIC is about 16-fold lower.

For the compound `C[C@@](CCN1Cc2cc(C#Cc3ccc(COC(N)=O)cc3)cn2C1=O)(C(=O)NO)S(C)(=O)=O`, the MIC was 0.25 µg/mL (≈ 0.512 µM).

In turn, `COc1ccc(-c2cc3n(c2)C(=O)N(CC[C@](C)(C(=O)NO)S(C)(=O)=O)C3)c(F)c1` came in with an MIC of at most 0.063 µg/mL.

Regarding `C[C@@](CCN1Cc2cc(C#CC#C[C@@H]3C[C@@]3(F)CO)cn2C1=O)(C(=O)NO)S(C)(=O)=O`, it took 0.25 µg/mL (≈ 0.554 µM) to inhibit growth (MIC).

Consider `CCOc1ccc(-c2cc3n(c2)C(=O)N(CC[C@](C)(C(=O)NO)S(C)(=O)=O)C3)c(Cl)c1`, for which the lowest concentration to inhibit growth (MIC) was 0.125 µg/mL (≈ 0.266 µM).

For orientation: MIC means the lowest concentration found to suppress growth. Low readings indicate a more susceptible organism, high ones a less susceptible organism.

(Values after ChEMBL document CHEMBL3751771, “LpxC Inhibitors as Effective Therapy Against Multidrug Resistant Bacterial Infections” (2015).)
